In ChEMBL document CHEMBL1201862, “PubChem BioAssay data set” (2004):
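Five concentrations, 48 hours, 96-well plates. GI50 is the concentration that inhibits growth by half.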 Activity calls are given as the source filed them. No stated cut-off is given here; in the data, active = GI50 up to about 1.1 µM and inactive = higher.

Assays:
Assay in all cases: DTP human tumour cell line panel, 48 h
OVCAR-3 = test system: OVCAR-3
NCI-H226 = test system: NCI-H226
NCI-H23 = test system: NCI-H23
HT-29 = test system: HT-29
HOP-62 = test system: HOP-62
SN12C = test system: SN12C
HCT-15 = test system: HCT-15
HOP-92 = test system: HOP-92
SK-OV-3 = test system: SK-OV-3
SF-268 = test system: SF-268
TK-10 = test system: TK-10
KM12 = test system: KM12
A549 = test system: A549
Malme-3M = test system: Malme-3M
OVCAR-5 = test system: OVCAR-5
HCT-116 = test system: HCT-116
UACC-257 = test system: UACC-257
SK-MEL-5 = test system: SK-MEL-5
NCI-H522 = test system: NCI-H522

`Clc1cc2nc[nH]c2cc1Cl` was tested, and the GI50 (OVCAR-3) was > 100 µM (inactive), the GI50 (NCI-H226) was 36.7 µM (inactive) and the GI50 (NCI-H23) was > 100 µM (inactive). The GI50 (HT-29) was > 100 µM (inactive), the GI50 (HOP-62) was 93.8 µM (inactive) and the GI50 (SN12C) was > 100 µM (inactive). For the same compound, the GI50 (HCT-15) was over 100 µM, the GI50 (HOP-92) was 56 µM (inactive) and the GI50 (SK-OV-3) was > 100 µM (inactive). For the same compound, the GI50 (SF-268) was > 100 µM (inactive), the GI50 (TK-10) was > 100 µM (inactive) and the GI50 (KM12) was 71.8 µM (inactive). For the same compound, the GI50 (A549) was > 100 µM (inactive), the GI50 (Malme-3M) was > 100 µM (inactive) and the GI50 (OVCAR-5) was > 100 µM (inactive).
With `O=S1(=O)OCCOS(=O)(=O)C1I` the GI50 (OVCAR-3) was > 100 µM (inactive), the GI50 (NCI-H226) was 28.6 µM (inactive) and the GI50 (NCI-H23) was > 100 µM (inactive). The GI50 (HCT-116) was > 100 µM (inactive), the GI50 (HT-29) was > 100 µM (inactive) and the GI50 (HOP-62) was > 100 µM (inactive). For the same compound, the GI50 (UACC-257) was > 100 µM (inactive), the GI50 (SN12C) was > 100 µM (inactive) and the GI50 (HOP-92) was > 100 µM (inactive). The GI50 (SK-OV-3) was > 100 µM (inactive), the GI50 (SF-268) was 92.5 µM (inactive) and the GI50 (SK-MEL-5) was 66.8 µM (inactive). For the same compound, the GI50 (TK-10) was > 100 µM (inactive), the GI50 (KM12) was > 100 µM (inactive) and the GI50 (NCI-H522) was > 100 µM (inactive). For the same compound, the GI50 (A549) was > 100 µM (inactive) and the GI50 (Malme-3M) was > 100 µM (inactive).
In the case of `c1cc2c(cc1NC1=NCCO1)CCC2`, the GI50 (OVCAR-3) was > 10 µM (inactive), the GI50 (NCI-H23) was > 10 µM (inactive) and the GI50 (HCT-116) was 4.49 µM (inactive). The GI50 (HT-29) was > 10 µM (inactive), the GI50 (HOP-62) was > 10 µM (inactive) and the GI50 (SN12C) was > 10 µM (inactive). For the same compound, the GI50 (HCT-15) was over 10 µM, the GI50 (HOP-92) was 7.5 µM (inactive) and the GI50 (SK-OV-3) was > 10 µM (inactive). The GI50 (SF-268) was > 10 µM (inactive), the GI50 (SK-MEL-5) was > 10 µM (inactive) and the GI50 (TK-10) was > 10 µM (inactive). For the same compound, the GI50 (KM12) was > 10 µM (inactive), the GI50 (A549) was > 10 µM (inactive) and the GI50 (Malme-3M) was > 10 µM (inactive).
In the case of `CC1CC(=O)Nc2ccc(Cl)cc2N1C(=O)CN1CCC(CCCCN(C)C)CC1` (stereo unspecified), the GI50 (OVCAR-3) was > 100 µM (inactive), the GI50 (NCI-H226) was > 100 µM (inactive) and the GI50 (NCI-H23) was > 100 µM (inactive). The GI50 (HCT-116) was > 100 µM (inactive), the GI50 (HT-29) was > 100 µM (inactive) and the GI50 (HOP-62) was > 100 µM (inactive). The GI50 (UACC-257) was > 100 µM (inactive), the GI50 (SN12C) was > 100 µM (inactive) and the GI50 (HCT-15) was over 100 µM. For the same compound, the GI50 (HOP-92) was > 100 µM (inactive), the GI50 (SK-OV-3) was > 100 µM (inactive) and the GI50 (SF-268) was > 100 µM (inactive). For the same compound, the GI50 (SK-MEL-5) was > 100 µM (inactive), the GI50 (TK-10) was > 100 µM (inactive) and the GI50 (A549) was > 100 µM (inactive). The GI50 (Malme-3M) was > 100 µM (inactive) and the GI50 (OVCAR-5) was > 100 µM (inactive).
With `O=C(O)CCSC(=O)Nc1ccccc1` the GI50 (OVCAR-3) was > 100 µM (inactive), the GI50 (NCI-H226) was > 100 µM (inactive) and the GI50 (NCI-H23) was > 100 µM (inactive). The GI50 (HCT-116) was > 100 µM (inactive), the GI50 (HT-29) was > 100 µM (inactive) and the GI50 (HOP-62) was > 100 µM (inactive). The GI50 (UACC-257) was > 100 µM (inactive), the GI50 (SN12C) was > 100 µM (inactive) and the GI50 (HCT-15) was over 100 µM. For the same compound, the GI50 (SF-268) was 44.8 µM (inactive), the GI50 (TK-10) was > 100 µM (inactive) and the GI50 (KM12) was > 100 µM (inactive). For the same compound, the GI50 (A549) was > 100 µM (inactive) and the GI50 (OVCAR-5) was > 100 µM (inactive).
For `Cc1ccc(-c2nc3ccccc3c(=O)n2NCC2(O)OCC(O)C(O)C2O)cc1` (stereo unspecified), the GI50 (OVCAR-3) was > 100 µM (inactive), the GI50 (NCI-H23) was > 100 µM (inactive) and the GI50 (HCT-116) was > 100 µM (inactive). For the same compound, the GI50 (HT-29) was > 100 µM (inactive), the GI50 (UACC-257) was > 100 µM (inactive) and the GI50 (SN12C) was > 100 µM (inactive). For the same compound, the GI50 (HCT-15) was over 100 µM, the GI50 (SK-OV-3) was > 100 µM (inactive) and the GI50 (SF-268) was > 100 µM (inactive). The GI50 (SK-MEL-5) was > 100 µM (inactive), the GI50 (KM12) was > 100 µM (inactive) and the GI50 (NCI-H522) was > 100 µM (inactive). For the same compound, the GI50 (A549) was > 100 µM (inactive), the GI50 (Malme-3M) was > 100 µM (inactive) and the GI50 (OVCAR-5) was > 100 µM (inactive).
With `COC(=O)c1c(OC)cccc1C(=O)O` the GI50 (OVCAR-3) was > 100 µM (inactive), the GI50 (NCI-H226) was > 100 µM (inactive) and the GI50 (NCI-H23) was > 100 µM (inactive). For the same compound, the GI50 (HCT-116) was > 100 µM (inactive), the GI50 (HT-29) was > 100 µM (inactive) and the GI50 (HOP-62) was > 100 µM (inactive). The GI50 (UACC-257) was > 100 µM (inactive), the GI50 (SN12C) was > 100 µM (inactive) and the GI50 (HCT-15) was over 100 µM. The GI50 (SK-OV-3) was > 100 µM (inactive), the GI50 (SF-268) was > 100 µM (inactive) and the GI50 (SK-MEL-5) was > 100 µM (inactive). For the same compound, the GI50 (TK-10) was > 100 µM (inactive), the GI50 (KM12) was > 100 µM (inactive) and the GI50 (NCI-H522) was > 100 µM (inactive). For the same compound, the GI50 (A549) was > 100 µM (inactive), the GI50 (Malme-3M) was > 100 µM (inactive) and the GI50 (OVCAR-5) was > 100 µM (inactive).
With `N#CC(C#N)=C1NN=C(Cl)c2ccccc21` the GI50 (OVCAR-3) was > 100 µM (inactive), the GI50 (NCI-H23) was 59.4 µM (inactive) and the GI50 (HT-29) was > 100 µM (inactive). For the same compound, the GI50 (HOP-62) was 67.8 µM (inactive), the GI50 (UACC-257) was 98.6 µM (inactive) and the GI50 (SN12C) was 96.4 µM (inactive). The GI50 (HCT-15) was over 100 µM, the GI50 (HOP-92) was 47.2 µM (inactive) and the GI50 (SK-OV-3) was > 100 µM (inactive). The GI50 (SF-268) was 72.9 µM (inactive), the GI50 (SK-MEL-5) was > 100 µM (inactive) and the GI50 (TK-10) was > 100 µM (inactive). For the same compound, the GI50 (KM12) was > 100 µM (inactive), the GI50 (NCI-H522) was 72.1 µM (inactive) and the GI50 (A549) was > 100 µM (inactive). For the same compound, the GI50 (Malme-3M) was 30.3 µM (inactive) and the GI50 (OVCAR-5) was > 100 µM (inactive).
`Cc1cc2c(=O)cc(-c3ccc(C(=O)O)cc3)oc2c(C(N)=O)c1C` was tested, and the GI50 (OVCAR-3) was > 100 µM (inactive), the GI50 (NCI-H23) was > 100 µM (inactive) and the GI50 (HCT-116) was > 100 µM (inactive). For the same compound, the GI50 (HT-29) was > 100 µM (inactive), the GI50 (HOP-62) was > 100 µM (inactive) and the GI50 (UACC-257) was > 100 µM (inactive). The GI50 (SN12C) was > 100 µM (inactive), the GI50 (HCT-15) was over 100 µM and the GI50 (HOP-92) was > 100 µM (inactive). For the same compound, the GI50 (SK-OV-3) was > 100 µM (inactive), the GI50 (SF-268) was > 100 µM (inactive) and the GI50 (SK-MEL-5) was > 100 µM (inactive). The GI50 (TK-10) was > 100 µM (inactive), the GI50 (KM12) was > 100 µM (inactive) and the GI50 (NCI-H522) was > 100 µM (inactive). The GI50 (A549) was > 100 µM (inactive), the GI50 (Malme-3M) was > 100 µM (inactive) and the GI50 (OVCAR-5) was > 100 µM (inactive).
